For 33 compounds, EC50 and CC50 results are on record in patent publication US11066357B2, “Benzoannulene derivatives as antiviral agents” (Southern Research Institute, priority 2017, dated 2021).

One data set concerns CHIKV. The data set can be described thus: antiviral activity (EC50), Table 1. It is filed as cell-based. Conditions: Chikungunya virus.
A short description of data set [1]: cytotoxicity (CC50), Table 1.

Usually EC50 stands for the midpoint of the concentration-response curve. A high value points to a less potent agent. By CC50 is commonly meant the concentration giving 50% cytotoxicity.

Consider `COc1cc2c(cc1C(=O)Nc1ccc(C(C)(C)C)cc1)CCCCC2` [Compound 1, N-(4-(tert.-butyl)phenyl)-3-methoxy-6,7,8,9-tetrahydro-5H-benzo[7]annulene-2-carboxamide], for which, in the data set with CHIKV, the EC50 is 0.32 µM. This compound came in with a CC50 in data set [1] greater than 40 µM.
Turning to `CC(C)(C)c1ccc(NC(=O)c2cc3c(cc2O)CCCCC3)cc1` [Compound 2, N-(4-(tert.-butyl)phenyl)-3-hydroxy-6,7,8,9-tetrahydro-5H-benzo[7]annulene-2-carboxamide], the EC50 with CHIKV was determined as 1.1 µM. The compound also yielded a CC50 in data set [1] of 9.8 µM.
Turning to `CC(C)(C)c1ccc(NC(=O)c2ccc3c(c2)CCCCC3)cc1` [Compound 3, N-(4-(tert.-butyl)phenyl)-6,7,8,9-tetrahydro-5H-benzo[7]annulene-2-carboxamide], the EC50 in the data set on CHIKV is 1.09 µM. The compound further registered a CC50 in data set [1] greater than 40 µM.
In the data set with CHIKV, `COc1cc2c(cc1C(=O)Nc1cc(C)n(C(C)(C)C)n1)CCCCC2` [Compound 4, N-(1-(tert.-butyl)-5-methyl-1H-pyrazol-3-yl)-3-methoxy-6,7,8,9-tetrahydro-5H-benzo[7]annulene-2-carboxamide] showed an EC50 of 3.9 µM. Moreover, half-maximal cytotoxicity in data set [1] (CC50) was put at 22.3 µM.
The corresponding values for `CCn1nc(NC(=O)c2cc3c(cc2OC)CCCCC3)cc1C` [Compound 5, N-(1-ethyl-5-methyl-1H-pyrazol-3-yl)-3-methoxy-6,7,8,9-tetrahydro-5H-benzo[7]annulene-2-carboxamide] are 9.9 µM and greater than 40 µM.
`CCn1nc(C(F)(F)F)c(NC(=O)c2cc3c(cc2OC)CCCCC3)c1C` [Compound 6, N-(1-ethyl-5-methyl-3-(trifluoromethyl)-1H-pyrazol-4-yl)-3-methoxy-6,7,8,9-tetrahydro-5H-benzo[7]annulene-2-carboxamide] showed an EC50 with CHIKV of 35.2 µM. Besides, in data set [1], the CC50 is greater than 40 µM.
In the data set with CHIKV, `COc1cc2c(cc1C(=O)Nc1ccc(C(C)(C)C)s1)CCCCC2` [Compound 7, N-(5-(tert.-butyl)thiophen-2-yl)-3-methoxy-6,7,8,9-tetrahydro-5H-benzo[7]annulene-2-carboxamide] came in with an EC50 greater than 40 µM. Moreover, in data set [1], the CC50 was greater than 40 µM.
`COc1cc2c(cc1C(=O)Nc1ncc(C(C)(C)C)s1)CCCCC2` [Compound 8, N-(5-(tert.-butyl)thiazol-2-yl)-3-methoxy-6,7,8,9-tetrahydro-5H-benzo[7]annulene-2-carboxamide] registered an EC50 in the data set with CHIKV of 9.63 µM. The compound also had a CC50 in data set [1] greater than 40 µM.
`COc1cc2c(cc1C(=O)Nc1cnc(C(C)(C)C)s1)CCCCC2` [Compound 9, N-(2-(tert.-butyl)thiazol-5-yl)-3-methoxy-6,7,8,9-tetrahydro-5H-benzo[7]annulene-2-carboxamide] registered an EC50 in the data set with CHIKV greater than 40 µM. The CC50 in data set [1] was greater than 40 µM.
With `COc1cc2c(cc1C(=O)Nc1ccc(C(C)(C)O)cc1)CCCCC2` [Compound 10, N-(4-(2-hydroxypropan-2-yl)phenyl)-3-methoxy-6,7,8,9-tetrahydro-5H-benzo[7]annulene-2-carboxamide], the EC50 with CHIKV came to 1.8 µM. Half-maximal cytotoxicity in data set [1] (CC50) was put at 24.9 µM.
On the same counts, the results for `COc1cc2c(cc1C(=O)Nc1ccc(C(C)(C)C)cn1)CCCCC2` [Compound 11, N-(5-(tert.-butyl)pyridin-2-yl)-3-methoxy-6,7,8,9-tetrahydro-5H-benzo[7]annulene-2-carboxamide] are 1.14 µM and greater than 40 µM.
In the data set on CHIKV, `COc1cc2c(cc1C(=O)Nc1ccc(C(O)(C(F)(F)F)C(F)(F)F)cc1)CCCCC2` [Compound 12, N-(4-(1,1,1,3,3,3-hexafluoro-2-hydroxypropan-2-yl)phenyl)-3-methoxy-6,7,8,9-tetrahydro-5H-benzo[7]annulene-2-carboxamide] yielded an EC50 greater than 40 µM. Further, in data set [1], the CC50 is greater than 40 µM.
In the data set on CHIKV, `COc1cc2c(cc1C(=O)Nc1sc(C(C)(C)C)cc1C#N)CCCCC2` [Compound 13, N-(5-(tert.-butyl)-3-cyanothiophen-2-yl)-3-methoxy-6,7,8,9-tetrahydro-5H-benzo[7]annulene-2-carboxamide] gave an EC50 greater than 40 µM. In data set [1], the CC50 is greater than 40 µM.
In the data set on CHIKV, `COc1cc2c(cc1C(=O)Nc1ccc(OC(F)(F)F)cc1)CCCCC2` [Compound 14, 3-methoxy-N-(4-(trifluoromethoxy)phenyl)-6,7,8,9-tetrahydro-5H-benzo[7]annulene-2-carboxamide] showed an EC50 greater than 40 µM. The compound further yielded a CC50 in data set [1] greater than 40 µM.
As to `COc1cc2c(cc1C(=O)Nc1ccc(-c3ccccc3)cc1)CCCCC2` [Compound 15, N-([1,1′-biphenyl]-4-yl)-3-methoxy-6,7,8,9-tetrahydro-5H-benzo[7]annulene-2-carboxamide], the EC50 in the data set on CHIKV is greater than 40 µM. The CC50 in data set [1] was greater than 40 µM.
The compound `COc1cc2c(cc1C(=O)Nc1ccc(-c3ccccc3)cn1)CCCCC2` [Compound 16, 3-methoxy-N-(5-phenylpyridin-2-yl)-6,7,8,9-tetrahydro-5H-benzo[7]annulene-2-carboxamide] yielded an EC50 in the data set with CHIKV greater than 40 µM. In addition, the CC50 in data set [1] is greater than 40 µM.
Consider `CC(C)(C)c1ccc(NC(=O)c2cc3c(cc2OC(F)F)CCCCC3)cc1` [Compound 17, N-(4-(tert.-butyl)phenyl)-3-(difluoromethoxy)-6,7,8,9-tetrahydro-5H-benzo[7]annulene-2-carboxamide], for which, in the data set on CHIKV, the EC50 was greater than 40 µM. In data set [1], this compound came in with a CC50 greater than 40 µM.
Turning to `COc1cc2c(cc1C(=O)NCc1ccc(C(C)(C)C)cc1)CCCCC2` [Compound 18, N-(4-(tert.-butyl)benzyl)-3-methoxy-6,7,8,9-tetrahydro-5H-benzo[7]annulene-2-carboxamide], in the data set on CHIKV, the response was half-maximal at 3.5 µM (EC50). Moreover, in data set [1], the CC50 was greater than 40 µM.
The compound `COc1cc2c(cc1C(=O)Nc1ccc(-c3cc[nH]n3)cc1)CCCCC2` [Compound 19, N-(4-(1H-pyrazol-3-yl)phenyl)-3-methoxy-6,7,8,9-tetrahydro-5H-benzo[7]annulene-2-carboxamide] gave an EC50 with CHIKV of 3.65 µM. This compound showed a CC50 in data set [1] of 23.2 µM.
The corresponding values for `COc1cc2c(cc1C(=O)Nc1ccc(N3CCCS3(=O)=O)cc1)CCCCC2` [Compound 20, N-(4-(1,1-dioxidoisothiazolidin-2-yl)phenyl)-3-methoxy-6,7,8,9-tetrahydro-5H-benzo[7]annulene-2-carboxamide] are greater than 5 µM and greater than 40 µM.
For `CCOc1cc2c(cc1C(=O)Nc1ccc(C(C)(C)C)cc1)CCCCC2` [Compound 21, N-(4-(tert.-butyl)phenyl)-3-ethoxy-6,7,8,9-tetrahydro-5H-benzo[7]annulene-2-carboxamide], in the data set with CHIKV, the EC50 is 29.9 µM. The CC50 in data set [1] was greater than 40 µM.
For `CCc1cc2c(cc1C(=O)Nc1ccc(C(C)(C)C)cc1)CCCCC2` [Compound 22, N-(4-(tert.-butyl)phenyl)-3-ethyl-6,7,8,9-tetrahydro-5H-benzo[7]annulene-2-carboxamide], the EC50 with CHIKV was greater than 40 µM. The compound further gave a CC50 in data set [1] greater than 40 µM.
Compound `CC(C)(C)c1ccc(NC(=O)c2cc3c(cc2O)CCCCC3)nc1` [Compound 23, N-(5-(tert.-butyl)pyridin-2-yl)-3-hydroxy-6,7,8,9-tetrahydro-5H-benzo[7]annulene-2-carboxamide] showed an EC50 in the data set on CHIKV of 3.8 µM. The same compound gave a CC50 in data set [1] greater than 40 µM.
In the data set on CHIKV, `COc1cc2c(cc1C(=O)Nc1ccc(C(C)(C)C#N)cc1)CCCCC2` [Compound 24, N-(4-(2-cyanopropan-2-yl)phenyl)-3-methoxy-6,7,8,9-tetrahydro-5H-benzo[7]annulene-2-carboxamide] gave an EC50 of 0.2 µM. Further, the CC50 in data set [1] was greater than 40 µM.
`COc1cc2c(cc1C(=O)Nc1cc(-c3ccccc3)[nH]n1)CCCCC2` [Compound 25, 3-methoxy-N-(5-phenyl-1H-pyrazol-3-yl)-6,7,8,9-tetrahydro-5H-benzo[7]annulene-2-carboxamide] had an EC50 in the data set on CHIKV greater than 40 µM. The compound further had a CC50 in data set [1] greater than 40 µM.
Compound `COc1cc2c(cc1C(=O)Nc1cc(C(C)(C)C)[nH]n1)CCCCC2` [Compound 26, N-(5-(tert.-butyl)-1H-pyrazol-3-yl)-3-methoxy-6,7,8,9-tetrahydro-5H-benzo[7]annulene-2-carboxamide] gave an EC50 in the data set on CHIKV of 7.03 µM. For the same compound, in data set [1], the CC50 turned out to be 15.5 µM.
For the compound `CCn1nc(NC(=O)c2cc3c(cc2O)CCCCC3)cc1C` [Compound 27, N-(1-ethyl-5-methyl-1H-pyrazol-3-yl)-3-hydroxy-6,7,8,9-tetrahydro-5H-benzo[7]annulene-2-carboxamide], the EC50 with CHIKV is greater than 40 µM. Also, the CC50 in data set [1] was greater than 40 µM.
In turn, `CC(C)(C)c1ccc(NC(=O)c2cc3c(cc2O)NCCCC3)cc1` [Compound 28, N-(4-(tert.-butyl)phenyl)-8-hydroxy-2,3,4,5-tetrahydro-1H-benzo[b]azepine-7-carboxamide] displayed an EC50 with CHIKV of 1.47 µM. Also, in data set [1], the CC50 is greater than 40 µM.
For `COc1cc2c(cc1C(=O)Nc1ccc(C(C)(C)C)cc1)CCCCN2` [Compound 29, N-(4-(tert.-butyl)phenyl)-8-methoxy-2,3,4,5-tetrahydro-1H-benzo[b]azepine-7-carboxamide], the response with CHIKV was half-maximal at 24.4 µM (EC50). The CC50 in data set [1] was greater than 40 µM.
On the same counts, the results for `COc1cc2c(cc1C(=O)NNc1ccc(C(C)(C)C)cc1)CCCCC2` [Compound 30] are greater than 40 µM and greater than 40 µM.
For the compound `COc1cc2c(cc1CC(=O)Nc1ccc(C(C)(C)C)cc1)CCCCC2` [Compound 31, N-(4-(tert.-butyl)phenyl)-2-(3-methoxy-6,7,8,9-tetrahydro-5H-benzo[7]annulen-2-yl)acetamide], the response with CHIKV was half-maximal at 30.4 µM (EC50). The compound also yielded a CC50 in data set [1] greater than 40 µM.
With `COc1cc2c(cc1CC(=O)N1CCC(C(C)(C)C)CC1)CCCCC2` [Compound 32, 1-(4-(tert.-butyl)piperidin-1-yl)-2-(3-methoxy-6,7,8,9-tetrahydro-5H-benzo[7]annulen-2-yl)ethan-1-one], in the data set on CHIKV, the EC50 was determined as 12.6 µM. The CC50 in data set [1] turned out to be 17.3 µM.
In the data set with CHIKV, `COc1cc2c(cc1CC(=O)N1CCC(F)(F)CC1)CCCCC2` [Compound 33, 1-(4,4-difluoropiperidin-1-yl)-2-(3-methoxy-6,7,8,9-tetrahydro-5H-benzo[7]annulen-2-yl)ethan-1-one] registered an EC50 greater than 40 µM. Further, the CC50 in data set [1] was greater than 40 µM.
